One data set addresses T1, PPARδ (Homo sapiens, UniProt Q03181).
T1 construct: PPARδ (aa 139 to 442); made in house; host or cells: E. coli BL21 (pLysS)
T1 sequence (Q03181 139-441 limits assumed): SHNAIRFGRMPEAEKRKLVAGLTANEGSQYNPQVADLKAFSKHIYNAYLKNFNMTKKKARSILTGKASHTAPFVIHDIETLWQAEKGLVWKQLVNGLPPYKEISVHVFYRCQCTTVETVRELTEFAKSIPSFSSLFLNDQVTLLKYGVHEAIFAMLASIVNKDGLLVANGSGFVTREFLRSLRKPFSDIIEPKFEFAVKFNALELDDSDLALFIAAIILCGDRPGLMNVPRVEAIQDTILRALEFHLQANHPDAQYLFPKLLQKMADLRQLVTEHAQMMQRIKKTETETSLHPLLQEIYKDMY
In words: PPARδ radioligand binding assay (scintillation proximity, GST-PPARδ-LBD). As to conditions: SPA radioligand binding. An excerpt:
(§1) Background information on the performed assays can be found in: Nichols J S et al. “Development of a scintillation proximity assay for peroxisome proliferator-activated receptor gamma ligand binding domain”, (1998) Anal. Biochem. 257: 112–119.
(§2) Full-length cDNA clones for humans PPARδ and PPARα and mouse PPARγ were obtained by RT-PCR from human adipose and mouse liver cRNA, respectively, cloned into plasmid vectors and verified by DNA sequencing. Bacterial and mammalian expression vectors were constructed to produce glutathione-s-transferase (GST) and Gal4 DNA binding domain proteins fused to the ligand binding domains (LBD) of PPARδ (aa 139 to 442), PPARγ (aa 174 to 476) and PPARα (aa 167 to 469). To accomplish this, the portions of the cloned sequences encoding the LBDs were amplified from the full-length clones by PCR and then subcloned into the plasmid vectors. Final clones were verified by DNA sequence analysis. […]
PPARδ receptor binding was assayed in HNM10 (50 mM Hepes, pH 7.4, 10 mM NaCl, 5 mM MgCl2, 0.15 mg/ml fatty acid-free BSA and 15 mM DTT). […] Radioligand was added and the reaction incubated at RT for 1 h and scintillation proximity counting performed in the presence of test compounds was determined. All binding assays were performed in 96 well plates and the amount of bound ligand was measured on a Packard TopCount using OptiPlates (Packard). […]
For orientation: SPA uses beads or plates that emit light when radiolabelled molecules are held near them.

A further data set concerns the target T2, PPARα (Homo sapiens, UniProt Q07869).
T2 construct: PPARα (aa 167 to 469); made in house; host or cells: E. coli BL21 (pLysS)
T2 sequence (Q07869 167-468 limits assumed): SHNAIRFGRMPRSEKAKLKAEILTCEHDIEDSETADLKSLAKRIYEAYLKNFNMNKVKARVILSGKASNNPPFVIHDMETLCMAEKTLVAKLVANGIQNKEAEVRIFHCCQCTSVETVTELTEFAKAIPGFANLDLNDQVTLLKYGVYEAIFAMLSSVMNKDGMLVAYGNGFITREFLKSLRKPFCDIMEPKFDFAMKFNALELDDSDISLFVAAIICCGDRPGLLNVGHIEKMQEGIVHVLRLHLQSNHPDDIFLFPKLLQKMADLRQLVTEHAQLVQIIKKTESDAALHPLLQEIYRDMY
In words: PPARα radioligand binding assay (scintillation proximity, GST-PPARα-LBD). The following applies: SPA radioligand binding.
Description: as §1, §2
PPARα receptor binding was assayed in TKE50 (50 mM Tris-HCl, pH 8, 50 mM KCl, 2 mM EDTA, 0.1 mg/ml fatty acid-free BSA and 10 mM DTT). […] All binding assays were performed in 96 well plates and the amount of bound ligand measured on a Packard TopCount using OptiPlates (Packard). Nonspecific binding was determined in the presence of 10^−4 M unlabelled compound. […]

Another data set has as its target T3, PPARγ (Mus musculus, UniProt P37238).
T3 construct: PPARγ (aa 174 to 476); made in house; host or cells: E. coli BL21 (pLysS)
T3 sequence (P37238 204-505): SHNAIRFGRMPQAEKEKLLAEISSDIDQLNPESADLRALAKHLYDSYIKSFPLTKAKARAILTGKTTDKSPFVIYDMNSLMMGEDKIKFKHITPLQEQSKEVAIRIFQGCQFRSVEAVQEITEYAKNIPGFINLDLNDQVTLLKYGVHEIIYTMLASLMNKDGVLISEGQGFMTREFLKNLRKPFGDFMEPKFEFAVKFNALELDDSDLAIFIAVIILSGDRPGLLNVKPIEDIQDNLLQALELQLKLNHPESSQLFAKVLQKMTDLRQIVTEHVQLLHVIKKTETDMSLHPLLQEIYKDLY
In words: PPARγ radioligand binding assay (scintillation proximity, GST-PPARγ-LBD). The following applies: SPA radioligand binding.
Description: as §1, §2
PPARγ receptor binding was assayed in TKE50 (50 mM Tris-HCl, pH 8, 50 mM KCl, 2 mM EDTA, 0.1 mg/ml fatty acid-free BSA and 10 mM DTT). […] All binding assays were performed in 96 well plates and the amount of bound ligand measured on a Packard TopCount using OptiPlates (Packard). Nonspecific binding was determined in the presence of 10^−4 M unlabelled compound. […]

One may read the IC50 as the concentration that gives 50% inhibition. A higher IC50 goes with weaker potency in that assay. Usually melting point stands for the temperature, or range, at which the solid turns liquid.

Turning to `Cc1nc(-c2ccc(C(F)(F)F)cc2)sc1C(C)Oc1ccc2ccn(CC(=O)O)c2c1` (racemic) [Example 2, [rac]-(6-{1-[4-methyl-2-(4-trifluoromethyl-phenyl)-thiazol-5-yl]-ethoxy}-indol-1-yl)-acetic acid], the half-inhibitory concentration (IC50) at PPARδ is 24 nM; on PPARα it was 2230 nM; on PPARγ, not below 10000 nM.
Regarding `Cc1nc(-c2ccc(C(F)(F)F)cc2)sc1CCCOc1cccc2c1ccn2CC(=O)O` [Example 8, (4-{3-[4-methyl-2-(4-trifluoromethyl-phenyl)-thiazol-5-yl]-propoxy}-indol-1-yl)-acetic acid], the IC50 is 42 nM at PPARδ, 227 nM at PPARα and not below 10000 nM on PPARγ.
In the case of `Cc1nc(-c2ccc(C(F)(F)F)cc2)sc1COc1ccc2c(c1)cc(C)n2CC(=O)O` [Example 32, {2-methyl-5-[4-methyl-2-(4-trifluoromethyl-phenyl)-thiazol-5-ylmethoxy]-indol-1-yl}-acetic acid], the melting point is 187 to 188 °C (dec.).

The values above are taken from patent US7235572B2, “Thiazolyl-indole derivatives, their manufacture and use as pharmaceutical agents” (Hoffman-La Roche Inc., priority 2003, dated 2007).
